According to ChEMBL document CHEMBL3352249, “Novel indolizine derivatives with unprecedented inhibitory activity on human farnesyltransferase” (Bioorg Med Chem Lett, 2014):

What was measured:
[1] = target: T1, Protein farnesyltransferase (Homo sapiens, UniProt P49354+P49356); assay: Inhibition of human recombinant farnesyltransferase using Dansyl-GCVLS peptide as substrate at 100 uM after 15 mins by fluorescence assay
[2] = target: T1, Protein farnesyltransferase; assay: Inhibition of human recombinant farnesyltransferase using Dansyl-GCVLS peptide as substrate after 15 mins by fluorescence assay

| SMILES | inhibition [1] [%] | IC50 [2] [µM] |
| --- | --- | --- |
| CCCCCCCCCCCCCC/C(C(=O)O)=C(\C)C(=O)O [CHAETOMELLIC ACID A] | 100 | 0.18 |
| C#CCNC(=O)c1cc(C(=O)c2ccccc2)n2c(C)cccc12 | 74 | 57.8 |
| O=C(O)c1cc(C(=O)c2ccccc2)n2ccccc12 | 100 | 19.7 |
| C#CCOC(=O)c1cc(C(=O)c2ccc(Br)cc2)n2c(C)cccc12 | 100 | 1.3 |
| C#CCCOC(=O)c1cc(C(=O)c2ccc(Cl)cc2)n2c(C)cccc12 | 97 | 20.7 |
| C#CCOC(=O)c1cc(C(=O)c2ccccc2)n2ccc(C)cc12 | 72 |  |
| C#CCCOC(=O)c1cc(C(=O)c2ccc(Cl)cc2)n2ccccc12 | 0 |  |
| C#CCCOC(=O)c1cc(C(=O)c2ccccc2)n2ccccc12 | 61 |  |
| Cc1cccc2c(C(=O)O)cc(C(=O)c3ccccc3)n12 | 48 |  |
| C#CCNC(=O)c1cc(C(=O)c2ccc(Br)cc2)n2ccccc12 | 100 | 4.4 |
| C#CCCOC(=O)c1cc(C(=O)c2ccc(Br)cc2)n2c(C)cccc12 | 100 | 2.2 |
| C#CCOC(=O)c1cc(C(=O)c2ccccc2)n2ccccc12 | 100 | 14.4 |
| C#CCOC(=O)c1cc(C(=O)c2ccc(Cl)cc2)n2c(C)cccc12 | 100 | 2.6 |
| C#CCNC(=O)c1cc(C(=O)c2ccccc2)n2ccccc12 | 100 | 22.1 |
| C#CCCOC(=O)c1cc(C(=O)c2ccccc2)n2c(C)cccc12 | 94 | 7.3 |
| C#CCOC(=O)c1cc(C(=O)c2ccccc2)n2c(C)cccc12 | 93 | 20.8 |
| C#CCCOC(=O)c1cc(C(=O)c2ccccc2)n2ccc(C)cc12 | 0 |  |
| C#CCNC(=O)c1cc(C(=O)c2ccc(Cl)cc2)n2c(C)cccc12 | 97 | 14.9 |
| C#CCNC(=O)c1cc(C(=O)c2ccc(Br)cc2)n2c(C)cccc12 | 90 | 11.4 |
| C#CCCOC(=O)c1cc(C(=O)c2ccc(Br)cc2)n2ccccc12 | 0 |  |

Continued, values first:

| inhibition [1] [%] | IC50 [2] [µM] | SMILES |
| --- | --- | --- |
| 68 |  | C#CCCOC(=O)c1cc(C(=O)c2ccc(Br)cc2)n2ccc(C)cc12 |
| 79 | 32.2 | Cc1cccc2c(C(=O)O)cc(C(=O)c3ccc(Cl)cc3)n12 |
| 0 |  | C#CCCOC(=O)c1cc(C(=O)c2ccc(Cl)cc2)n2ccc(C)cc12 |
| 0 |  | Cc1ccn2c(C(=O)c3ccc(Br)cc3)cc(C(=O)O)c2c1 |
| 54 |  | C#CCOC(=O)c1cc(C(=O)c2ccc(Cl)cc2)n2ccccc12 |
| 91 | 14.8 | Cc1cccc2c(C(=O)O)cc(C(=O)c3ccc(Br)cc3)n12 |
| 100 | 19.4 | O=C(O)c1cc(C(=O)c2ccc(Br)cc2)n2ccccc12 |
| 100 | 20.7 | O=C(O)c1cc(C(=O)c2ccc(Cl)cc2)n2ccccc12 |
| 94 | 5.9 | C#CCNC(=O)c1cc(C(=O)c2ccc(Cl)cc2)n2ccccc12 |
| 100 | 72.3 | Cc1ccn2c(C(=O)c3ccccc3)cc(C(=O)O)c2c1 |
| 0 |  | Cc1ccn2c(C(=O)c3ccc(Cl)cc3)cc(C(=O)O)c2c1 |
| 0 |  | C#CCOC(=O)c1cc(C(=O)c2ccc(Cl)cc2)n2ccc(C)cc12 |
| 100 | 15.3 | C#CCNC(=O)c1cc(C(=O)c2ccccc2)n2ccc(C)cc12 |
